“Also recorded” adds a separate entry of the source. Where two headings read alike, the source gives them in different places.
What was measured:
[1] = biological target: T1, SARS-CoV-2 M^pro (Severe acute respiratory syndrome coronavirus 2, UniProt P0DTD1); conditions: cited from earlier work
[2] = biological target: T2, ERp57 (Homo sapiens, UniProt P30101); assay: Di-eosin-GSSG disulfide reductase assay, ERp57; type: biochemical
T2 construct: FLAG; made in house; host or cells: Escherichia coli Origami B (DE3)
T2 sequence (P30101 25-505): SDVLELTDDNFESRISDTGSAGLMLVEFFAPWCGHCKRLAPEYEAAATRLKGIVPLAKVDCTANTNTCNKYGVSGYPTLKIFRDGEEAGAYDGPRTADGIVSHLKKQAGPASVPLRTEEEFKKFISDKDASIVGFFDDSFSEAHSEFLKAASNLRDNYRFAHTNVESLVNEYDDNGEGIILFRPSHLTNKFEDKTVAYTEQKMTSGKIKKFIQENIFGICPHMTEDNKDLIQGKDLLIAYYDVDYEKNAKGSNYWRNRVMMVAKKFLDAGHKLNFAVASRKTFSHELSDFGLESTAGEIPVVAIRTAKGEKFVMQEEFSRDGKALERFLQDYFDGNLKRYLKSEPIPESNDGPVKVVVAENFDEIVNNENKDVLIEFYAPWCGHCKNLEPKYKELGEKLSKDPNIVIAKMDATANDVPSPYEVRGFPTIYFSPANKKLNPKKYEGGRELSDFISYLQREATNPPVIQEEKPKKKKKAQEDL
From the text: Recombinant protein purification. Recombinant ‘double-tagged’ (streptavidin-binding protein-tagged and FLAG-tagged) full-length PDI, ERp57, recombinant His-tagged full-length ERp5, ERp72, PDI domain fragments, and PDI mutant were cloned into a pET-15b vector at the NdeI and BamHI sites and transformed into Escherichia coli Origami B (DE3) cells (EMD Chemicals). The recombinant proteins were expressed and isolated by affinity chromatography with complete His-Tag purification resin (Roche Applied Science) or Pierce High-Capacity Streptavidin Agarose beads and purified on a Superdex 200 (GE Healthcare).
(§1) Di-eosin-GSSG disulfide reductase assay. […] Any fraction with a fold change >5 was kept.

[3] = biological target: T3, PDI (Homo sapiens, UniProt P07237); assay: Di-eosin-GSSG disulfide reductase assay, PDI; type: biochemical
T3 construct: FLAG; made in house; host or cells: Escherichia coli Origami B (DE3)
T3 sequence (P07237 18-508): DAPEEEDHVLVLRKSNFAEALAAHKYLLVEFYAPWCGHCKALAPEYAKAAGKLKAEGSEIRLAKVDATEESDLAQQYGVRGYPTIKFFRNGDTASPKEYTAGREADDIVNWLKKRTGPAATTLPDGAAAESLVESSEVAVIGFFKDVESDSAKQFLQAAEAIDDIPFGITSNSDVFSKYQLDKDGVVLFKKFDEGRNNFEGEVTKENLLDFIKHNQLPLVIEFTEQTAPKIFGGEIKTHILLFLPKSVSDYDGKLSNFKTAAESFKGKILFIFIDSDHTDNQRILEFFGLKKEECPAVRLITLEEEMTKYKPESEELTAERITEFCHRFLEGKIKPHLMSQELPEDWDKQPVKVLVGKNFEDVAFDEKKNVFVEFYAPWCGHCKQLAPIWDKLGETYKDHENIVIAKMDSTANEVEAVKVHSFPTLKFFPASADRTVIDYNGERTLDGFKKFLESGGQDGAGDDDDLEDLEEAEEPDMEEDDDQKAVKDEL
Procedure: Di-eosin-GSSG disulfide reductase assay. The probe di-eosin glutathione disulfide, di-eosin-GSSG, was prepared by incubating 100 μM of GSSG with 1 mM of eosin isothiocyanate in 100 mM potassium phosphate containing 2 mM EDTA (pH 7.4), at 25° C. overnight in the dark. The mixture was passed down a PD-10 column and different fractions were collected. A fold change of fluorescence (Ex: 520 nm, Em: 550 nm) was calculated using samples subjected to either vehicle or 20 mM of DTT. Any fraction with a fold change >5 was kept. Using a stock of 10 mM eosin isothiocyanate, a standard curve was generated and concentration of samples were determined accordingly. Di-eosin-GSSG cleavage of purified thiol isomerases and PDI domains was monitored in a 96-well fluorescence plate format. PDI, CGXC-PDI variants, ERp5, ERp57, ERp46 and PDI domains were assayed at 50 nM in the presence or absence of the indicated small molecules. The assay included a thiol isomerase assay buffer (39 mM KH2PO4, 61 mM K2HPO4, 2 mM EDTA, 5 M DTT, pH 7.4) and 150 nM of the di-eosin-GSSG probe. The increase in fluorescence was determined for 60 min by excitation at 520 nm and emission at 550 nm in a Synergy Biotek 4. The reduction of 150 nM di-eosin-GSSG by 5 μM DTT in the presence or absence of mentioned small molecule or proteins served as a negative control.

[4] = biological target: T3, PDI; assay: Maleimide-pegylated biotin (MPB) binding to PDI; conditions: preincubation with compound
Procedure: PDI was then exposed to MPB in Laemmli Sample buffer for 10 minutes. Samples were subsequently analyzed for MPB labeling with […] after SDS-PAGE and immunoblotting.
Maleimide-pegylated Biotin (MPB) binding. MPB-binding experiments were performed in a reaction volume of 37.5 μL of polyphenols with 5 μM of thiol isomerase in phosphate buffered saline (PBS). The reaction mixture was incubated at 37° C. for 1 h. Subsequently, the reaction mixtures were incubated with 25 μM of MPB. The labelling was performed for 20 min at 25° C. A total of 12.5 μL of 4× Laemmli Sample Buffer with 10% v/v β-mercaptoethanol was added to each of the samples, followed by heating at 95° C. for 10 min. From each sample, 10 μL was loaded on a 4-15% SDS-PAGE TGX gel, followed by transfer on a nitrocellulose membrane. After blocking the membrane with tris-buffered saline containing 0.1% v/v Tween-20 (TBS-T) containing 5% BSA for 1 h, the membrane was incubated with a 1:2,000 dilution of streptavidin-HRP in TBS-T for an hour in the dark. Detection of the immunoblots was performed using a BioRad ChemiDoc MP imager.

[5] = test system: SARS-CoV-2; assay: Vero E6-based viral replication assay; type: cell-based
[6] = biological target: ERp46 (Homo sapiens, UniProt Q8NBS9); assay: Di-eosin-GSSG disulfide reductase assay, ERp46; type: biochemical
ERp46, sequence (Q8NBS9 33-432, species assumed): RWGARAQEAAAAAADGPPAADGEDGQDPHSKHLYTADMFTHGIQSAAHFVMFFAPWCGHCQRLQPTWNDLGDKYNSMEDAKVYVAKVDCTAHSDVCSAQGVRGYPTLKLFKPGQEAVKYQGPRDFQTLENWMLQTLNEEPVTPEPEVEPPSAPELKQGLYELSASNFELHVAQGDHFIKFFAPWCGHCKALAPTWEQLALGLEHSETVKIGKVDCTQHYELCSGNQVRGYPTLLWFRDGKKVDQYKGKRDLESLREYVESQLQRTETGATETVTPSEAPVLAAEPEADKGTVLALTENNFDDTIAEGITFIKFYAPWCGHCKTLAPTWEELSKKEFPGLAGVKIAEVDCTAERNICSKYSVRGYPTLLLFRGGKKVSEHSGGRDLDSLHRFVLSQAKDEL
From the text: as §1

[7] = test system: PDI mutants in which His55 and His399 were replaced; conditions: 10 μM PGHG, 15 min
Procedure: Data represented as mean±SEM.
Di-eosin-GSSG disulfide reductase assay. […] Di-eosin-GSSG cleavage of purified thiol isomerases and PDI domains was monitored in a 96-well fluorescence plate format. PDI, CGXC-PDI variants, ERp5, ERp57, ERp46 and PDI domains were assayed at 50 nM in the presence or absence of the indicated small molecules. The assay included a thiol isomerase assay buffer (39 mM KH2PO4, 61 mM K2HPO4, 2 mM EDTA, 5 M DTT, pH 7.4) and 150 nM of the di-eosin-GSSG probe. The increase in fluorescence was determined for 60 min by excitation at 520 nm and emission at 550 nm in a Synergy Biotek 4. The reduction of 150 nM di-eosin-GSSG by 5 μM DTT in the presence or absence of mentioned small molecule or proteins served as a negative control.

[8] = biological target: T1, SARS-CoV-2 M^pro; conditions: literature values (Table 2); read-out: SARS-CoV-2 M^pro inhibition; cited from earlier work
[9] = test system: SARS-CoV-2; conditions: cited from earlier work

O=C(O[C@@H]1[C@@H](O)[C@H](Oc2cc(O)c3c(c2)O[C@H](c2ccccc2)CC3=O)O[C@@H]2COC(=O)c3cc(O)c(O)c(O)c3-c3c(cc(O)c(O)c3O)C(=O)O[C@@H]12)c1cc(O)c(O)c(O)c1 [PGHG, pinocembrin 7-O-(3″-galloyl-4″,6″-(S)-hexahydroxydiphenoyl)-beta-D-glucose]
Modeling shows gallic acid interaction with His41 or Glu166 [1]: His41; Glu166
IC50 [2]: 3.3 µM
inhibition of PDI (in words) [3]: low micromolar range; also recorded: inhibit PDI
IC50 ([3]; read-out: PDI reductase activity IC50): 1.5 ± 0.6 µM
effect on MPB binding to PDI [4]: no significant effect on MPB binding
IC50 [5]: 4.9 µM
IC50 [6]: 3.9 µM
susceptibility of His55/His399 PDI mutants (Ala, Asp, Arg) [7]: mutants were resistance to PGHG
IC50 [8]: 6.5 µM
IC50 ([9]; Vero Cells, read-out: Inhibition of viral replication IC50): 5 µM
inhibition of SARS-CoV-2 / infection (in words) [9]: inhibitors of SARS-CoV-2

Reference: patent US20250134853A1, “COMPOUNDS AND METHODS FOR USING GALLOYLATED POLYPHENOLS TO TREAT DISEASES MEDIATED BY THIOL ISOMERASES” (Beth Israel Deaconess Medical Center, Inc., priority 2023, published 2025)
